Data on 11 compounds can be found in PubChem BioAssay (NCI).

Some test systems named below: SNB-75 CNS; K-562 leukemia; RXF 393 renal; SW-620 colon; HOP-62 NSCLC; RPMI-8226 leukemia; TK-10 renal; SF-295 CNS; U251 CNS; HS 578T breast.
Holding throughout (assay): NCI anticancer screen, dose series, 48 h

The structures appear in SMILES notation. Several values for one entry are separate records, joined by “and”; a condition that tells them apart may be missing. Identical values can stand only once.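 48-hour exposure; five concentrations; linearly interpolated endpoints. At the GI50, growth is halved. The concentration for full growth arrest is given as TGI.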

On to `CCOC(=O)N1C(c2ccccc2)C=CC(c2ccccc2)N1C(=O)OCC` (stereo not given), for which the TGI in the assay with SNB-75 CNS, in the assay with K-562 leukemia, in the assay on RXF 393 renal, in the assay with SW-620 colon, in the assay with HOP-62 NSCLC and in the assay with RPMI-8226 leukemia was over 100 µM in each case. Further, the TGI in the assay on TK-10 renal, in the assay with SF-295 CNS and in the assay with U251 CNS was over 100 µM each time.

In the case of `Cc1ccccc1C(=O)Oc1ccc(OCc2ccccc2)cc1`, the TGI in the assay with SNB-75 CNS, with K-562 leukemia, in the assay on RXF 393 renal, in the assay with SW-620 colon, in the assay with HOP-62 NSCLC and with RPMI-8226 leukemia was over 100 µM in each case. Further, the TGI with TK-10 renal, with SF-295 CNS and in the assay on U251 CNS was over 100 µM each time.

In the case of `Nc1c(C(=O)N/N=C/c2ccc(-c3cc(Cl)c(Cl)cc3Cl)o2)cnn1-c1ccnc2c(C(F)(F)F)cccc12`, the GI50 is 4.01 µM with SNB-75 CNS; 3 µM in the assay on K-562 leukemia; 4.05 µM in the assay on SW-620 colon; 5.24 µM with HOP-62 NSCLC; 5.04 µM in the assay with HS 578T breast; 3.25 µM in the assay with RPMI-8226 leukemia. Besides, the GI50 in the assay on TK-10 renal was 3.48 µM; with SF-295 CNS it was 3.27 µM; in the assay with U251 CNS it was 4.18 µM. Also, the TGI in the assay on SNB-75 CNS was 53 µM; with K-562 leukemia, over 100 µM; in the assay on SW-620 colon, over 100 µM; in the assay with HOP-62 NSCLC, over 100 µM; in the assay with HS 578T breast, over 100 µM; in the assay on RPMI-8226 leukemia, over 100 µM. Also, the TGI with TK-10 renal, in the assay on SF-295 CNS and with U251 CNS was over 100 µM throughout.

As to `Cn1cnc2c(F)c(Nc3ccc(Br)cc3F)c(C(=O)NOCCO)cc21`, the GI50 in the assay on K-562 leukemia is 1.33 µM and 10.8 µM; in the assay with RXF 393 renal it was 0.455 µM and 4.39 µM; in the assay on SW-620 colon, 0.029 µM and 0.0449 µM; in the assay on HS 578T breast, > 2.14 µM and 33.6 µM; in the assay with RPMI-8226 leukemia it was over 56.4 µM; with TK-10 renal, 3.07 µM and 1.34 µM. Further, the results for the GI50 in the assay with SF-295 CNS and with U251 CNS were over 67.7 µM and 7.78 µM, respectively. The TGI with K-562 leukemia was over 100 µM; with RXF 393 renal, over 96.2 µM; in the assay with SW-620 colon, over 100 µM; in the assay with HOP-62 NSCLC it was over 100 µM; with HS 578T breast it was over 100 µM; with RPMI-8226 leukemia, over 100 µM. Besides, the TGI in the assay on TK-10 renal, in the assay with SF-295 CNS and in the assay with U251 CNS was over 100 µM each time.

As for `Cc1cc(N(CCCNc2ccnc3cc(Cl)ccc23)Cc2ccc3c(c2)OCO3)nc(N2CCCCC2)n1`, the GI50 in the assay with SNB-75 CNS was 1.47 µM; in the assay with RXF 393 renal, 1.52 µM; in the assay on HOP-62 NSCLC, 1.74 µM; in the assay on HS 578T breast, 1.78 µM; in the assay on RPMI-8226 leukemia it was 1.91 µM; in the assay on TK-10 renal it was 1.91 µM. Also, the GI50 with SF-295 CNS was 1.59 µM; with U251 CNS it was 2.06 µM. The TGI turned out to be 3.33 µM in the assay on SNB-75 CNS; 3.12 µM in the assay on RXF 393 renal; 5.17 µM in the assay on HOP-62 NSCLC; 4.25 µM in the assay on HS 578T breast; 4.93 µM with RPMI-8226 leukemia; 4.01 µM in the assay on TK-10 renal. Moreover, the TGI with SF-295 CNS amounted to 3.39 µM; in the assay on U251 CNS, 4.65 µM.

Take `Cn1ccnc1CCc1ccc(Cl)c(Cl)c1`: the TGI in the assay with SNB-75 CNS, with K-562 leukemia, in the assay on RXF 393 renal, with SW-620 colon, in the assay on HOP-62 NSCLC and with RPMI-8226 leukemia was over 100 µM throughout. The TGI in the assay on TK-10 renal, in the assay with SF-295 CNS and in the assay with U251 CNS was over 100 µM throughout.

On to `Cc1ccc(C=NC23CC4CC(CC(C4)C2)C3)cc1`, for which the TGI in the assay on SNB-75 CNS, in the assay with K-562 leukemia, with RXF 393 renal, in the assay with SW-620 colon, in the assay with HOP-62 NSCLC and in the assay on RPMI-8226 leukemia was over 100 µM throughout. Also, the TGI in the assay with TK-10 renal, with SF-295 CNS and with U251 CNS was over 100 µM each time.

`CC(C)CC12CC3CCC(CNC1=O)C32C` (stereo not given): the TGI in the assay on SNB-75 CNS, with K-562 leukemia, with RXF 393 renal, with SW-620 colon, in the assay with HOP-62 NSCLC and in the assay on RPMI-8226 leukemia was over 100 µM throughout. In addition, the TGI with TK-10 renal, in the assay with SF-295 CNS and in the assay with U251 CNS was over 100 µM in each case.

`C=C(CNC(=O)c1ccccc1)c1ccc(C(=O)Nc2ccccc2N)cc1`: the GI50 in the assay with K-562 leukemia was 1.26 µM; with RXF 393 renal it was 3.08 µM; with SW-620 colon, 3.62 µM; with HOP-62 NSCLC, 63.7 µM; in the assay on HS 578T breast it was 20 µM; in the assay on TK-10 renal, 2.12 µM. The GI50 with SF-295 CNS was 12.5 µM; in the assay on U251 CNS, 5.43 µM. In addition, the TGI in the assay with K-562 leukemia is over 100 µM; in the assay on RXF 393 renal it was over 100 µM; in the assay on SW-620 colon, over 100 µM; in the assay with HOP-62 NSCLC, over 100 µM; in the assay on HS 578T breast, over 100 µM; in the assay with TK-10 renal, 13.6 µM. The values for the TGI with SF-295 CNS and with U251 CNS were over 100 µM and 74.5 µM, respectively.

Take `CCOC(=O)C1=C(Nc2ccc(Br)cc2)OC/C1=N\NC(=O)c1ccccc1O`: the TGI was over 48.3 µM in the assay on SNB-75 CNS; 38.6 µM in the assay on K-562 leukemia; 14.2 µM in the assay on RXF 393 renal; over 49.4 µM in the assay with SW-620 colon; over 65.1 µM in the assay with HOP-62 NSCLC; 49.4 µM with RPMI-8226 leukemia. For the same compound, the TGI with TK-10 renal, in the assay with SF-295 CNS and in the assay with U251 CNS was over 100 µM in each case.

Turning to `NCc1c(C(N)=O)ncn1Cc1ccccc1`, the TGI in the assay on SNB-75 CNS, in the assay on K-562 leukemia, in the assay on RXF 393 renal, with SW-620 colon, in the assay with HOP-62 NSCLC and with RPMI-8226 leukemia was over 100 µM each time. In addition, the TGI with TK-10 renal, in the assay on SF-295 CNS and in the assay with U251 CNS was over 100 µM each time.
